Data published in patent publication US20210070684A1, “PRODUCTION OF HIGHLY PURE META,META-COUPLED BIS(4-ALKYLPHENOL) DERIVATIVES AND USES THEREOF” (KATHOLIEKE UNIVERSITEIT LEUVEN, priority 2017, published 2021).

melting point: 134 to 136 °C
SMILES: COc1cc(C)c(Cc2cc(O)c(OC)cc2C)cc1O [Reference Example 1, 5,5′-methylenebis(2-methoxy-4-methylphenol)]
